PubChem BioAssay (NCI)
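Test compounds were applied to cells in 96-well plates for 48 hours at 5 doses. The concentration for full growth arrest is given as TGI.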

Key:
Experiment in all cases: growth of human tumour cells (NCI), 48 h
OVCAR-4 ovarian = test system: OVCAR-4 ovarian
HCT-116 colon = test system: HCT-116 colon
HS 578T breast = test system: HS 578T breast
KM12 colon = test system: KM12 colon
CAKI-1 renal = test system: CAKI-1 renal
HCC-2998 colon = test system: HCC-2998 colon
MCF7 breast = test system: MCF7 breast
UACC-257 melanoma = test system: UACC-257 melanoma
HCT-15 colon = test system: HCT-15 colon
TK-10 renal = test system: TK-10 renal
HT29 colon = test system: HT29 colon
MOLT-4 leukemia = test system: MOLT-4 leukemia
RPMI-8226 leukemia = test system: RPMI-8226 leukemia
ACHN renal = test system: ACHN renal
BT-549 breast = test system: BT-549 breast
M14 melanoma = test system: M14 melanoma
CCRF-CEM leukemia = test system: CCRF-CEM leukemia
U251 CNS = test system: U251 CNS
HOP-62 NSCLC = test system: HOP-62 NSCLC
NCI-H226 lung = test system: NCI-H226 lung
IGROV1 ovarian = test system: IGROV1 ovarian
OVCAR-5 ovarian = test system: OVCAR-5 ovarian
A498 renal = test system: A498 renal
OVCAR-8 ovarian = test system: OVCAR-8 ovarian
A549 NSCLC = test system: A549 NSCLC
SN12C renal = test system: SN12C renal
DU-145 prostate = test system: DU-145 prostate
MDA-N = test system: MDA-N
HOP-92 NSCLC = test system: HOP-92 NSCLC
EKVX NSCLC = test system: EKVX NSCLC
786-0 renal = test system: 786-0 renal
UO-31 renal = test system: UO-31 renal
UACC-62 melanoma = test system: UACC-62 melanoma
SK-OV-3 ovarian = test system: SK-OV-3 ovarian
HL-60(TB) leukemia = test system: HL-60(TB) leukemia
SK-MEL-28 melanoma = test system: SK-MEL-28 melanoma
OVCAR-3 ovarian = test system: OVCAR-3 ovarian
SK-MEL-5 melanoma = test system: SK-MEL-5 melanoma
SNB-75 CNS = test system: SNB-75 CNS
SW-620 colon = test system: SW-620 colon
NCI-H522 lung = test system: NCI-H522 lung
SF-268 CNS = test system: SF-268 CNS
T-47D breast = test system: T-47D breast
K-562 leukemia = test system: K-562 leukemia
MALME-3M melanoma = test system: MALME-3M melanoma
SK-MEL-2 melanoma = test system: SK-MEL-2 melanoma
SF-539 CNS = test system: SF-539 CNS
NCI-H460 lung = test system: NCI-H460 lung
COLO 205 colon = test system: COLO 205 colon
NCI-H23 lung = test system: NCI-H23 lung
MDA-MB-435 = test system: MDA-MB-435
PC-3 prostate = test system: PC-3 prostate
NCI/ADR-RES ovarian = test system: NCI/ADR-RES ovarian
SNB-19 CNS = test system: SNB-19 CNS
SF-295 CNS = test system: SF-295 CNS
MDA-MB-231 breast = test system: MDA-MB-231 breast
RXF 393 renal = test system: RXF 393 renal
LOX IMVI melanoma = test system: LOX IMVI melanoma

**Q.** Which TGI (OVCAR-4 ovarian) does the source give for Cc1ccc2c3c4c(ccc13)C(C)(C)OC4=C(C(C)C)C2=O here?
**A.** > 100 µM

**Q.** What about the TGI (HCT-116 colon) of the same molecule?
**A.** > 100 µM

**Q.** What about the TGI (HS 578T breast) of the same molecule?
**A.** 55.2 µM

**Q.** What about the TGI (KM12 colon) of the same molecule?
**A.** > 100 µM

**Q.** What about the TGI (CAKI-1 renal) of the same molecule?
**A.** > 100 µM

**Q.** What about the TGI (HCC-2998 colon) of the same molecule?
**A.** > 100 µM

**Q.** What about the TGI (MCF7 breast) of the same molecule?
**A.** > 100 µM

**Q.** What about the TGI (UACC-257 melanoma) of the same molecule?
**A.** > 100 µM

**Q.** And the TGI (HCT-15 colon)?
**A.** > 100 µM

**Q.** What about the TGI (TK-10 renal) of the same molecule?
**A.** > 100 µM

**Q.** And the TGI (HT29 colon)?
**A.** 39.2 µM

**Q.** And the TGI (MOLT-4 leukemia)?
**A.** > 100 µM

**Q.** And the TGI (RPMI-8226 leukemia)?
**A.** > 100 µM

**Q.** And the TGI (ACHN renal)?
**A.** > 100 µM

**Q.** What about the TGI (BT-549 breast) of the same molecule?
**A.** > 100 µM

**Q.** And the TGI (M14 melanoma)?
**A.** > 100 µM

**Q.** And the TGI (CCRF-CEM leukemia)?
**A.** > 100 µM

**Q.** And the TGI (U251 CNS)?
**A.** > 100 µM

**Q.** What about the TGI (HOP-62 NSCLC) of the same molecule?
**A.** 29 µM

**Q.** And the TGI (NCI-H226 lung)?
**A.** 27.9 µM

**Q.** And the TGI (IGROV1 ovarian)?
**A.** > 100 µM

**Q.** And the TGI (OVCAR-5 ovarian)?
**A.** > 100 µM

**Q.** What about the TGI (A498 renal) of the same molecule?
**A.** > 100 µM

**Q.** What about the TGI (OVCAR-8 ovarian) of the same molecule?
**A.** > 100 µM

**Q.** What about the TGI (A549 NSCLC) of the same molecule?
**A.** > 100 µM

**Q.** And the TGI (SN12C renal)?
**A.** > 100 µM

**Q.** And the TGI (DU-145 prostate)?
**A.** > 100 µM

**Q.** What about the TGI (MDA-N) of the same molecule?
**A.** > 100 µM

**Q.** What about the TGI (HOP-92 NSCLC) of the same molecule?
**A.** > 100 µM

**Q.** What about the TGI (EKVX NSCLC) of the same molecule?
**A.** > 100 µM

**Q.** What about the TGI (786-0 renal) of the same molecule?
**A.** > 100 µM

**Q.** And the TGI (UO-31 renal)?
**A.** > 100 µM

**Q.** And the TGI (UACC-62 melanoma)?
**A.** > 100 µM

**Q.** What about the TGI (SK-OV-3 ovarian) of the same molecule?
**A.** > 100 µM

**Q.** And the TGI (HL-60(TB) leukemia)?
**A.** > 100 µM

**Q.** And the TGI (SK-MEL-28 melanoma)?
**A.** > 100 µM

**Q.** And the TGI (OVCAR-3 ovarian)?
**A.** 26.8 µM

**Q.** And the TGI (SK-MEL-5 melanoma)?
**A.** > 100 µM

**Q.** What about the TGI (SNB-75 CNS) of the same molecule?
**A.** > 100 µM

**Q.** And the TGI (SW-620 colon)?
**A.** > 100 µM

**Q.** What about the TGI (NCI-H522 lung) of the same molecule?
**A.** > 100 µM

**Q.** And the TGI (SF-268 CNS)?
**A.** > 100 µM

**Q.** What about the TGI (T-47D breast) of the same molecule?
**A.** > 100 µM

**Q.** And the TGI (K-562 leukemia)?
**A.** > 100 µM

**Q.** What about the TGI (MALME-3M melanoma) of the same molecule?
**A.** > 100 µM

**Q.** And the TGI (SK-MEL-2 melanoma)?
**A.** 30.7 µM

**Q.** What about the TGI (SF-539 CNS) of the same molecule?
**A.** > 100 µM

**Q.** And the TGI (NCI-H460 lung)?
**A.** > 100 µM

**Q.** And the TGI (COLO 205 colon)?
**A.** > 100 µM

**Q.** And the TGI (NCI-H23 lung)?
**A.** > 100 µM

**Q.** What about the TGI (MDA-MB-435) of the same molecule?
**A.** > 100 µM

**Q.** What about the TGI (PC-3 prostate) of the same molecule?
**A.** 27.6 µM

**Q.** And the TGI (NCI/ADR-RES ovarian)?
**A.** > 100 µM

**Q.** And the TGI (SNB-19 CNS)?
**A.** > 100 µM

**Q.** And the TGI (SF-295 CNS)?
**A.** > 100 µM

**Q.** What about the TGI (MDA-MB-231 breast) of the same molecule?
**A.** > 100 µM

**Q.** What about the TGI (RXF 393 renal) of the same molecule?
**A.** > 100 µM

**Q.** Which results are given for CCOC(=O)C(C)(C)Oc1ccc(Cl)cc1?
**A.** TGI (OVCAR-4 ovarian): > 1000 µM; TGI (HCT-116 colon): > 1000 µM; TGI (HS 578T breast): > 1000 µM; TGI (KM12 colon): > 1000 µM; TGI (CAKI-1 renal): > 1000 µM; TGI (HCC-2998 colon): > 1000 µM; TGI (MCF7 breast): > 1000 µM; TGI (UACC-257 melanoma): 496 µM; TGI (HCT-15 colon): > 1000 µM; TGI (LOX IMVI melanoma): 329 µM; TGI (TK-10 renal): > 1000 µM; TGI (HT29 colon): 325 µM; TGI (MOLT-4 leukemia): 591 µM; TGI (ACHN renal): > 1000 µM; TGI (BT-549 breast): > 1000 µM; TGI (M14 melanoma): > 1000 µM; TGI (CCRF-CEM leukemia): > 1000 µM; TGI (U251 CNS): > 1000 µM; TGI (HOP-62 NSCLC): > 1000 µM; TGI (NCI-H226 lung): 429 µM; TGI (IGROV1 ovarian): > 1000 µM; TGI (OVCAR-5 ovarian): > 1000 µM; TGI (A498 renal): > 1000 µM; TGI (OVCAR-8 ovarian): > 1000 µM; TGI (A549 NSCLC): > 1000 µM; TGI (SN12C renal): > 1000 µM; TGI (DU-145 prostate): > 1000 µM; TGI (MDA-N): > 1000 µM; TGI (HOP-92 NSCLC): 650 µM; TGI (EKVX NSCLC): > 1000 µM; TGI (786-0 renal): > 1000 µM; TGI (UO-31 renal): > 1000 µM; TGI (UACC-62 melanoma): > 1000 µM; TGI (SK-OV-3 ovarian): > 1000 µM; TGI (HL-60(TB) leukemia): > 1000 µM; TGI (SK-MEL-28 melanoma): > 1000 µM; TGI (SK-MEL-5 melanoma): 294 µM; TGI (SNB-75 CNS): > 1000 µM; TGI (SW-620 colon): > 1000 µM; TGI (NCI-H522 lung): > 1000 µM; TGI (SF-268 CNS): > 1000 µM; TGI (T-47D breast): 682 µM; TGI (K-562 leukemia): > 1000 µM; TGI (MALME-3M melanoma): > 1000 µM; TGI (SK-MEL-2 melanoma): 392 µM; TGI (SF-539 CNS): > 1000 µM; TGI (NCI-H460 lung): > 1000 µM; TGI (COLO 205 colon): 459 µM; TGI (NCI-H23 lung): > 1000 µM; TGI (MDA-MB-435): > 1000 µM; TGI (PC-3 prostate): > 1000 µM; TGI (NCI/ADR-RES ovarian): > 1000 µM; TGI (SNB-19 CNS): > 1000 µM; TGI (SF-295 CNS): > 1000 µM; TGI (MDA-MB-231 breast): > 1000 µM; TGI (RXF 393 renal): 433 µM
